Values of other authors, collected in PMC2965246 (Nucleic Acids Research, 2010).

Test system: GRPR
Conditions: reported value

binding affinity to the GRPR: 79 nM
Substance: bombesin [BBN]
